Measured values from patent US20140228540A1, “POLYPEPTIDES THAT BIND TISSUE INHIBITOR OF METALLOPROTEINASE TYPE THREE (TIMP-3), COMPOSITIONS AND METHODS” (Amgen Inc., priority 2009, published 2014).
Where two headings read alike, the source gives them in different places.

Tests used:
HTB-94 cells = test: Accumulation of TIMP-3 in the medium of cultured HTB-94 cells; assay type: cell-based
Method: This example describes an assay to evaluate the accumulation of TIMP-3 in the medium of cultured cells. HTB-94™ cells (a chondrocytic cell line available from the American Type Culture Collection, Manassas, Va.) are plated to 24-well tissue culture plates at 1×10̂5 cells per well in 1 ml growth medium (RPM11640, 10% FBS, 1% PSG), and incubated at 37 C, 5% CO2 overnight. The cells are then washed once with PBS, and the wells are replenished with 250 microL serum-free medium (RPM11640, 1% PSG; designated SF in the tables below) to which is added the polypeptide being tested or a control (for example medium containing heparin, 1 mg/ml). Proteins to be tested are diluted to appropriate concentrations, for example as shown in the Tables below, and added to the cells. Cells are then incubated at 37 C, 5% CO2 for two additional days, day 2 conditioned medium (CM) samples are collected and clarified by centrifugation (i.e., for 5 minutes at 10K RPM) and the supernatant fluid is collected and stored at −20 C until assayed. Analysis is done on 100 microL CM samples, either by Western blot or by using a standard human TIMP-3 ELISA as per the manufacturer's protocol (R&D Systems Inc., Minneapolis, Minn.).

[1] = test system: biotinylated recombinant human or mouse TIMP-3; test: TIMP-3 AlphaScreen binding assay
Method: Peptides were also evaluated by AlphaScreen® (Amplified Luminescent Proximity Homogeneous Assay; PerkinElmer, Waltham, Mass.) a very sensitive non-radioactive homogeneous assay technology that allows the screening of a large range of biological interactions and activities, substantially according to the manufacturer's instructions. Briefly, all dilutions are made in AlphaScreen® Buffer: [40 mM HEPES pH 7.5, 100 mM NaCl, 1 mM CaCl2, 0.1% BSA, 0.05% Tween-20]. The LRP-1 peptides are titrated in a separate polypropylene 96-well plate (Falcon) starting at 4 microM concentration and then diluted serially 3-fold for 12-points, with the last point buffer only. First 2 microL/well of protein titration curve is added to white, small volume, 384-well assay plate (Greiner Bio-One, Stonehouse, UK) in duplicate. Next, 2 microL of biotinylated (AFS, in-house conjmicroGation) recombinant human or mouse TIMP-3, is added at 12 nM (or 3 nM final assay concentration) to the assay plate. Lastly, in subdued light 4 microL of a mixture of streptavidin donor beads, anti-mouse IgG acceptor beads (PerkinElmer) both diluted to 20 microG/mL (10 microG/mL final assay concentration) and 2 nM (1 nM final concentration) rat-anti-HA (clone3F10)-HRP (Roche Diagnostics) is added to the plates. Plates containing 8 microL final assay volume are covered with TopSeal A (to prevent evaporation), spun quickly at 1000 rpm, and incubated overnight (covered with foil to prevent light exposure) before reading on Fusion plate reader (PerkinElmer) using AlphaScreen® parameters (excitation 680 nm and emission 520-620 nm). Data is analyzed using GraphPad Prism 4.01 software. Binding to TIMP-3 is reported as total signal (cps).

TIMP-3 = test: Binding ELISA of LRP-1 peptides to TIMP-3 (Table 2; format and species not specified); design: species or system human or mouse
[2] = Assay 2, read-out: Binding ELISA EC50 (nm) Assay 2
[3] = Assay 1, read-out: Binding ELISA EC50 (nm) Assay 1

## LA4-5: LRP-1 peptide multimer, amino acids 895-975
HTB-94 cells; Table 7, peptides 2 microM
  TIMP-3 (ng/ml) in conditioned medium: 2.68 ng/mL
[1]
  AlphaScreen total signal (cps) Assay 1: 2,200 cps
  AlphaScreen total signal (cps) Assay 2: 2,000 cps

## LA22: LRP-1 peptide monomer, amino acids 3374-3412
HTB-94 cells; Table 6, peptides 2 microM
  TIMP-3 (ng/ml) in conditioned medium: 0.96 ng/mL
[1]
  AlphaScreen total signal (cps) Assay 1: 2,200 cps

## LA23: LRP-1 peptide monomer, amino acids 3413-3452
TIMP-3; [2]
  EC50: > 5000 nM
HTB-94 cells; Table 6, peptides 2 microM
  TIMP-3 (ng/ml) in conditioned medium: 0.87 ng/mL
[1]
  AlphaScreen total signal (cps) Assay 1: 2,200 cps

## LA16: LRP-1 peptide monomer, amino acids 2734-2773
HTB-94 cells; Table 6, peptides 2 microM
  TIMP-3 (ng/ml) in conditioned medium: 0.94 ng/mL
[1]
  AlphaScreen total signal (cps) Assay 1: 2,200 cps

## LA24-26: LRP-1 peptide multimer, amino acids 3453- (end not printed)
HTB-94 cells; Table 7, peptides 2 microM
  TIMP-3 (ng/ml) in conditioned medium: 10.38 ng/mL
[1]
  AlphaScreen total signal (cps) Assay 1: 150,000 cps
  AlphaScreen total signal (cps) Assay 2: 120,000 cps

## LA18: LRP-1 peptide monomer, amino acids 2818-2857
TIMP-3; [2]
  EC50: > 10000 nM
HTB-94 cells; Table 6, peptides 2 microM
  TIMP-3 (ng/ml) in conditioned medium: 1.11 ng/mL
[1]
  AlphaScreen total signal (cps) Assay 1: 2,200 cps

## LA5: LRP-1 peptide monomer, amino acids 931-975
TIMP-3; [2]
  EC50: 1080 nM
HTB-94 cells; Table 6, peptides 2 microM
  TIMP-3 (ng/ml) in conditioned medium: 0.94 ng/mL
[1]
  AlphaScreen total signal (cps) Assay 1: 2,200 cps
  AlphaScreen total signal (cps) Assay 2: 2,000 cps

## LA5-7: LRP-1 peptide multimer, amino acids 931-1061
[1]
  AlphaScreen total signal (cps) Assay 1: 2,000 cps
  AlphaScreen total signal (cps) Assay 2: 8,000 cps

## LA17: LRP-1 peptide monomer, amino acids 2774-2817
TIMP-3; [2]
  EC50: > 5000 nM
HTB-94 cells; Table 6, peptides 2 microM
  TIMP-3 (ng/ml) in conditioned medium: 1.06 ng/mL
[1]
  AlphaScreen total signal (cps) Assay 1: 2,200 cps

## LA25: LRP-1 peptide monomer, amino acids 3494-3535
HTB-94 cells; Table 7, peptides 2 microM
  TIMP-3 (ng/ml) in conditioned medium: 1.24 ng/mL
[1]
  AlphaScreen total signal (cps) Assay 1: 5,000 cps
  AlphaScreen total signal (cps) Assay 2: 2,000 cps

## LA21-23: LRP-1 peptide multimer, amino acids 3334- (end not printed)
TIMP-3; [3]
  EC50: 243 nM
HTB-94 cells; Table 7, peptides 2 microM
  TIMP-3 (ng/ml) in conditioned medium: 4.46 ng/mL
[1]
  AlphaScreen total signal (cps) Assay 1: 3,000 cps

## LA3-4: LRP-1 peptide multimer, amino acids 854-930
[1]
  AlphaScreen total signal (cps) Assay 1: 9,000 cps
  AlphaScreen total signal (cps) Assay 2: 3,500 cps

## LA3-5: LRP-1 peptide multimer, amino acids 854-975
HTB-94 cells; Table 7, peptides 2 microM
  TIMP-3 (ng/ml) in conditioned medium: 4.22 ng/mL
[1]
  AlphaScreen total signal (cps) Assay 1: 4,000 cps
  AlphaScreen total signal (cps) Assay 2: 9,000 cps

## LA24: LRP-1 peptide monomer, amino acids 3453-3493
HTB-94 cells; Table 6, peptides 2 microM
  TIMP-3 (ng/ml) in conditioned medium: 0.41 ng/mL
[1]
  AlphaScreen total signal (cps) Assay 1: 2,200 cps
  AlphaScreen total signal (cps) Assay 2: 2,000 cps

## LA19: LRP-1 peptide monomer, amino acids 2858-2903
TIMP-3; [2]
  EC50: > 10000 nM
HTB-94 cells; Table 6, peptides 2 microM
  TIMP-3 (ng/ml) in conditioned medium: 1.06 ng/mL
[1]
  AlphaScreen total signal (cps) Assay 1: 2,200 cps

## LA26: LRP-1 peptide monomer, amino acids 3536-3574
HTB-94 cells; Table 7, peptides 2 microM
  TIMP-3 (ng/ml) in conditioned medium: 1.01 ng/mL
[1]
  AlphaScreen total signal (cps) Assay 1: 2,200 cps

## LA3: LRP-1 peptide monomer, amino acids 854-894
HTB-94 cells; Table 6, peptides 2 microM
  TIMP-3 (ng/ml) in conditioned medium: 0.60 ng/mL
[1]
  AlphaScreen total signal (cps) Assay 1: 2,200 cps
  AlphaScreen total signal (cps) Assay 2: 2,000 cps

## LA20: LRP-1 peptide monomer, amino acids 2904-2943 (CNASSQFLCSSGRCVAEALLCNGQDDCGDSSDERGCHINE)
TIMP-3; [2]
  EC50: > 10000 nM
HTB-94 cells; Table 6, peptides 2 microM
  TIMP-3 (ng/ml) in conditioned medium: 0.96 ng/mL
[1]
  AlphaScreen total signal (cps) Assay 1: 2,200 cps

## LA21: LRP-1 peptide monomer, amino acids 3334-3373
HTB-94 cells; Table 6, peptides 2 microM
  TIMP-3 (ng/ml) in conditioned medium: 1.82 ng/mL
[1]
  AlphaScreen total signal (cps) Assay 1: 2,200 cps

## LA27: LRP-1 peptide monomer, amino acids 3575-3612
HTB-94 cells; Table 7, peptides 2 microM
  TIMP-3 (ng/ml) in conditioned medium: 0.65 ng/mL
[1]
  AlphaScreen total signal (cps) Assay 1: 2,200 cps

## LA24-25: LRP-1 peptide multimer, amino acids 3453-3535
HTB-94 cells; Table 7, peptides 2 microM
  TIMP-3 (ng/ml) in conditioned medium: 2.48 ng/mL
[1]
  AlphaScreen total signal (cps) Assay 1: 290,000 cps
  AlphaScreen total signal (cps) Assay 2: 130,000 cps

## Cluster III: LRP-1 peptide, amino acids 2524- (end not printed)
HTB-94 cells
  Accumulation of TIMP-3 in conditioned medium by Western blot: did not result in significant accumulation

## LA18-20: LRP-1 peptide multimer, amino acids 2818- (end not printed)
TIMP-3; [3]
  EC50: ~300 nM
[1]
  AlphaScreen total signal (cps) Assay 1: 3,000 cps

## LA23-24: LRP-1 peptide multimer, amino acids 3413-3493
HTB-94 cells; Table 7, peptides 2 microM
  TIMP-3 (ng/ml) in conditioned medium: 1.38 ng/mL
[1]
  AlphaScreen total signal (cps) Assay 1: 2,200 cps
  AlphaScreen total signal (cps) Assay 2: 2,000 cps

## LA6: LRP-1 peptide monomer, amino acids 976-1014
HTB-94 cells; Table 6, peptides 2 microM
  TIMP-3 (ng/ml) in conditioned medium: 1.07 ng/mL
[1]
  AlphaScreen total signal (cps) Assay 1: 2,200 cps

## LA25-26: LRP-1 peptide multimer, amino acids printed as 3594-3574
HTB-94 cells; Table 7, peptides 2 microM
  TIMP-3 (ng/ml) in conditioned medium: 9.30 ng/mL
[1]
  AlphaScreen total signal (cps) Assay 1: 20,000 cps
  AlphaScreen total signal (cps) Assay 2: 5,000 cps

B1: LA3-10: LRP-1 peptide multimer, not listed in Table 1 (protein)
chain: CQPGEFACANSRCIQERWKCDGDNDCLDNSDEAPALCHQHTCPSDRFKCENNRCIPNRWLCDGDNDCGNSEDESNATCSARTCPPNQFSCASGRCIPISWTCDLDDDCGDRSDESASCAYPTCFPLTQFTCNNGRCININWRCDNDNDCGDNSDEAGCSHSCSSTQFKCNSGRCIPEHWTCDGDNDCGDYSDETHANCTNQATRPPGGCHTDEFQCRLDGLCIPLRWRCDGDTDCMDSSDEKSCEGVTHVCDPSVKFGCKDSARCISKAWVCDGDNDCEDNSDEENCESLACRPPSHPCANNTSVCLPPDKLCDGNDDCGDGSDEGELCDQ
TIMP-3; [3]
  EC50: 45.5 nM
TIMP-3; Assay 3, read-out: Binding ELISA EC50 (nm) Assay 3
  EC50: 32.5 nM
[1]
  AlphaScreen total signal (cps) Assay 2: 100,000 cps

B2: LA13-15: LRP-1 peptide multimer, amino acids 2605- (end not printed) (protein)
chain: CGVGEFRCRDGTCIGNSSRCNQFVDCEDASDEMNCSATDCSSYFRLGVKGVLFQPCERTSLCYAPSWVCDGANDCGDYSDERDCPGVKRPRCPLNYFACPSGRCIPMSWTCDKEDDCEHGEDETHCNKF
[1]
  AlphaScreen total signal (cps) Assay 1: 1,200 cps

B3: Cluster I: LRP-1 peptide, amino acids 27-114 of LRP-1 (SEQ ID NO:1) (protein, listed as Homo sapiens)
chain: CSPKQFACRDQITCISKGWRCDGERDCPDGSDEAPEICPQSKAQRCQPNEHNCLGTELCVPMSRLCNGVQDCMDGSDEGPHCRELQGN
HTB-94 cells; Table 5, polypeptide 0.5 microM
  TIMP-3 (ng/ml) in conditioned medium: 1.02 ng/mL
HTB-94 cells; Table 5, polypeptide 1 microM
  TIMP-3 (ng/ml) in conditioned medium: 0.86 ng/mL
HTB-94 cells; Table 5, polypeptide 2 microM
  TIMP-3 (ng/ml) in conditioned medium: 0.81 ng/mL
HTB-94 cells; Table 6, peptides 2 microM
  TIMP-3 (ng/ml) in conditioned medium: 0.65 ng/mL
HTB-94 cells; Table 7, peptides 2 microM
  TIMP-3 (ng/ml) in conditioned medium: 0.87 ng/mL
HTB-94 cells; Table 8, polypeptide 0.5 microM
  TIMP-3 (ng/ml) in conditioned medium: 1.41 ng/mL
HTB-94 cells; Table 8, polypeptide 1 microM
  TIMP-3 (ng/ml) in conditioned medium: 1.19 ng/mL
HTB-94 cells; Table 8, polypeptide 2 microM
  TIMP-3 (ng/ml) in conditioned medium: 1.44 ng/mL
HTB-94 cells
  Accumulation of TIMP-3 in conditioned medium by Western blot: did not result in significant accumulation

B4: LA15-17: LRP-1 peptide multimer, amino acids 2696- (end not printed) (protein)
chain: CPLNYFACPSGRCIPMSWTCDKEDDCEHGEDETHCNKFCSEAQFECQNHRCISKQWLCDGSDDCGDGSDEAAHCEGKTCGPSSFSCPGTHVCVPERWLCDGDKDCADGADESIAAGCLYNST
HTB-94 cells; Table 7, peptides 2 microM
  TIMP-3 (ng/ml) in conditioned medium: 4.70 ng/mL
[1]
  AlphaScreen total signal (cps) Assay 1: 90,000 cps
  AlphaScreen total signal (cps) Assay 2: 70,000 cps
